# Measurements taken from PMC6168434 (European journal of medicinal chemistry, 2018).
# Experiments:
# MCF7 = conditions: MCF7, relative to CysB; cited from earlier work
# cancer cells = experiment: Western blot and flow cytometry analysis of treated cancer cells; type: cell-based; conditions: Figure S4
# [1] = target: human immunoproteasome hiβ5 (Homo sapiens, UniProt P20618+P28062); experiment: Purified human immunoproteasome β5; type: biochemical; conditions: purified human immunoproteasomes 8 μg/mL, Suc-LLVY-AMC
# hcCP β5 in MCF7 cells = experiment: Cellular infiltration: β5 inhibition in intact versus lysed MCF7 cells; type: cell-based, human; conditions: one hour treatment, relative to 1
# [2] = target: yeast 20S proteasome (yCP) yβ5 (Saccharomyces cerevisiae, UniProt P23724+P30656); experiment: Purified yeast proteasome inhibition, yβ5; type: biochemical
Structure (SMILES),times more cytotoxic than CysB (MCF7),apoptosis (flow cytometry) (cancer cells),cell cycle (flow cytometry) (cancer cells),ubiquitinated proteins (Western blot) (cancer cells),isoform preference hiβ5 versus yβ5 [1],times more capable of crossing the cell membrane than 1 (hcCP β5 in MCF7 cells),fold decreased IC50 for yβ5 versus yβ1 [2] [fold]
CC(C)[C@H](NC(=O)[C@@H]1OC(=O)[C@H]1C(C)C)C(=O)N[C@H](C(=O)OCc1ccccc1)C(C)C [Compound 1],over 10 times,induced apoptosis,arrested cells in the G2/M phase,accumulation of ubiquitinated proteins,,,
"CC[C@H](C)[C@@H]1C(=O)O[C@H]1C(=O)N[C@H](C(=O)N[C@H](C(=O)OCc1ccccc1)C(C)C)C(C)C [Compound 2, benzyl((2R,3S)-3-((S)-sec-butyl)-4-oxooxetane-2-carbonyl)-L-valyl-L-valinate]",,induced apoptosis,arrested cells in the G2/M phase,accumulation of ubiquitinated proteins,slight preference for hiβ5,approximately 10 times,
"CC(C)[C@H](NC(=O)[C@@H](NC(=O)[C@@H]1OC(=O)[C@H]1C(C)C)C(C)C)C(=O)O [Cystargolide B, reference compound]",,,,,,,50
"CC[C@H](C)[C@@H]1C(=O)O[C@H]1C(=O)N[C@H](C(=O)N[C@@H](COCc1ccccc1)C(=O)OCc1ccccc1)C(C)C [Compound 5k, benzylO-benzyl-N-(((2R,3S)-3-((S)-sec-butyl)-4-oxooxetane-2-carbonyl)-L-valyl)-L-serinate]",,,,,slight preference for hiβ5,,
